Test results: the NIST ThermoML archive (doi:10.1021/je200637v)
± gives the expanded uncertainty stated by the source.

Assay: activity coefficient (dimensionless); of the first substance listed, at infinite dilution; xn = mol fraction of the nth substance listed
Details: Liquid, Chromatography, x1 = 0

Row | Structure (SMILES) | activity coefficient (322.85 K) | activity coefficient (332.65 K) | activity coefficient (343.15 K)
1 | C#CCCCC [1-hexyne] + CCCCCCCC[N+](C)(C)C.O=S(=O)([N-]S(=O)(=O)C(F)(F)F)C(F)(F)F | 1.92 ± 0.08 | 1.89 ± 0.08 | 1.82 ± 0.08
2 | C#CCCCC [1-hexyne] + CCCCCCCC[N+](CCCCCCCC)(CCCCCCCC)CCCCCCCC.O=S(=O)([N-]S(=O)(=O)C(F)(F)F)C(F)(F)F | 0.75 ± 0.03 | 0.76 ± 0.03 | 0.76 ± 0.03
3 | C#CCCCC [1-hexyne] + CCCC[N+](C)(CCCC)CCCC.O=S(=O)([N-]S(=O)(=O)C(F)(F)F)C(F)(F)F | 2.12 ± 0.1 | 2.24 ± 0.1 | 2.2 ± 0.1
4 | CCC[N+](=O)[O-] [1-nitropropane] + CCCCCCCCCC[N+](C)(C)C.O=S(=O)([N-]S(=O)(=O)C(F)(F)F)C(F)(F)F | 0.59 ± 0.03 | 0.59 ± 0.03 | 0.57 ± 0.03
5 | CCC[N+](=O)[O-] [1-nitropropane] + CCCCCCCC[N+](C)(C)C.O=S(=O)([N-]S(=O)(=O)C(F)(F)F)C(F)(F)F | 0.62 ± 0.03 | 0.61 ± 0.03 | 0.6 ± 0.03
6 | CCC[N+](=O)[O-] [1-nitropropane] + CCCCCCCC[N+](CCCCCCCC)(CCCCCCCC)CCCCCCCC.O=S(=O)([N-]S(=O)(=O)C(F)(F)F)C(F)(F)F | 0.48 ± 0.03 | 0.48 ± 0.03 | 0.47 ± 0.03
7 | CCC[N+](=O)[O-] [1-nitropropane] + CCCC[N+](C)(CCCC)CCCC.O=S(=O)([N-]S(=O)(=O)C(F)(F)F)C(F)(F)F | 0.68 ± 0.03 | 0.7 ± 0.03 | 0.68 ± 0.03
8 | OCC(F)(F)F [2,2,2-trifluoroethanol] + CCCCCCCCCC[N+](C)(C)C.O=S(=O)([N-]S(=O)(=O)C(F)(F)F)C(F)(F)F | 0.46 ± 0.03 | 0.44 ± 0.03 | 0.41 ± 0.03
9 | OCC(F)(F)F [2,2,2-trifluoroethanol] + CCCCCCCC[N+](C)(C)C.O=S(=O)([N-]S(=O)(=O)C(F)(F)F)C(F)(F)F | 0.4 ± 0.03 | 0.38 ± 0.03 | 0.35 ± 0.04
10 | OCC(F)(F)F [2,2,2-trifluoroethanol] + CCCCCCCC[N+](CCCCCCCC)(CCCCCCCC)CCCCCCCC.O=S(=O)([N-]S(=O)(=O)C(F)(F)F)C(F)(F)F | 0.48 ± 0.03 | 0.37 ± 0.03 | 0.36 ± 0.04
11 | OCC(F)(F)F [2,2,2-trifluoroethanol] + CCCC[N+](C)(CCCC)CCCC.O=S(=O)([N-]S(=O)(=O)C(F)(F)F)C(F)(F)F | 0.5 ± 0.03 | 0.48 ± 0.03 | 0.45 ± 0.03
12 | CC(C)CC(C)(C)C [2,2,4-trimethylpentane] + CCCCCCCCCC[N+](C)(C)C.O=S(=O)([N-]S(=O)(=O)C(F)(F)F)C(F)(F)F | 5.41 ± 0.25 | 5.29 ± 0.24 | 4.92 ± 0.22
13 | CC(C)CC(C)(C)C [2,2,4-trimethylpentane] + CCCCCCCC[N+](C)(C)C.O=S(=O)([N-]S(=O)(=O)C(F)(F)F)C(F)(F)F | 8.1 ± 0.37 | 7.66 ± 0.35 | 7.14 ± 0.33
14 | CC(C)CC(C)(C)C [2,2,4-trimethylpentane] + CCCCCCCC[N+](CCCCCCCC)(CCCCCCCC)CCCCCCCC.O=S(=O)([N-]S(=O)(=O)C(F)(F)F)C(F)(F)F | 1.52 ± 0.06 | 1.51 ± 0.06 | 1.5 ± 0.06
15 | CC(C)CC(C)(C)C [2,2,4-trimethylpentane] + CCCC[N+](C)(CCCC)CCCC.O=S(=O)([N-]S(=O)(=O)C(F)(F)F)C(F)(F)F | 8.87 ± 0.41 | 8.91 ± 0.41 | 8.42 ± 0.39
16 | CC(C)CO [2-methyl-1-propanol] + CCCCCCCCCC[N+](C)(C)C.O=S(=O)([N-]S(=O)(=O)C(F)(F)F)C(F)(F)F | 1.59 ± 0.06 | 1.47 ± 0.06 | 1.31 ± 0.05
17 | CC(C)CO [2-methyl-1-propanol] + CCCCCCCC[N+](C)(C)C.O=S(=O)([N-]S(=O)(=O)C(F)(F)F)C(F)(F)F | 1.87 ± 0.08 | 1.7 ± 0.07 | 1.51 ± 0.06
18 | CC(C)CO [2-methyl-1-propanol] + CCCCCCCC[N+](CCCCCCCC)(CCCCCCCC)CCCCCCCC.O=S(=O)([N-]S(=O)(=O)C(F)(F)F)C(F)(F)F | 1.17 ± 0.04 | 1.09 ± 0.03 | 1 ± 0.03
19 | CC(C)CO [2-methyl-1-propanol] + CCCC[N+](C)(CCCC)CCCC.O=S(=O)([N-]S(=O)(=O)C(F)(F)F)C(F)(F)F | 1.97 ± 0.09 | 1.82 ± 0.08 | 1.64 ± 0.07
20 | CCC(C)CC [3-methylpentane] + CCCCCCCCCC[N+](C)(C)C.O=S(=O)([N-]S(=O)(=O)C(F)(F)F)C(F)(F)F | 3.88 ± 0.18 | 3.78 ± 0.17 | 3.62 ± 0.16
21 | CCC(C)CC [3-methylpentane] + CCCCCCCC[N+](C)(C)C.O=S(=O)([N-]S(=O)(=O)C(F)(F)F)C(F)(F)F | 5.62 ± 0.26 | 5.24 ± 0.24 | 4.87 ± 0.22
